Reference: ChEMBL document CHEMBL1131189, “Conformationally restricted analogues of 1N,12N-bisethylspermine: synthesis and growth inhibitory effects on human tumor cell lines” (1998)

Tests used:
[1] = system: A549; assay: Growth inhibitory activity was measured for human A549 tumor cell line.; format: functional; settings: Homo sapiens, A549; read-out: ID50 (the source's name)
[2] = system: DU-145; assay: The concentration levels of spermidine (SD), evaluated for the polyamine and analogue levels in DU145 cells treated with the compound concentration of 0 uM on third day of treatment.; format: functional, cell-based; settings: Homo sapiens
[3] = system: DU-145; assay: The concentration levels of spermine (SP), evaluated for the polyamine and analogue levels in DU145 cells treated with the compound concentration of 5 uM on fthird day of treatment.; format: functional, cell-based; settings: Homo sapiens
[4] = system: DU-145; assay: The concentration levels of spermidine (SD), evaluated for the polyamine and analogue levels in DU145 cells treated with the compound concentration of 5 uM on third day of treatment.; format: functional, cell-based; settings: Homo sapiens
[5] = system: DU-145; assay: The concentration levels of spermine (SP) evaluated for the polyamine and analogue levels in DU145 cells treated with the compound concentration of 0 uM on fifth day of treatment.; format: functional, cell-based; settings: Homo sapiens
[6] = system: DU-145; assay: The concentration levels of spermine (SP) evaluated for the polyamine and analogue levels in DU145 cells treated with the compound concentration of 5 uM on fifth day of treatment.; format: functional, cell-based; settings: Homo sapiens
[7] = system: DU-145; assay: The concentration levels of analogue evaluated for the polyamine and analogue levels in DU145 cells treated with the compound concentration of 5 uM on third day of treatment.; format: functional, cell-based; settings: Homo sapiens
[8] = system: DU-145; assay: The concentration levels of putrescine (PU) evaluated for the polyamine and analogue levels in DU145 cells treated with the compound concentration of 0 uM on fifth day of treatment.; format: functional, cell-based; settings: Homo sapiens
[9] = system: DU-145; assay: The concentration levels of putrescine (PU) evaluated for the polyamine and analogue levels in DU145 cells treated with the compound concentration of 0. uM on third day of treatment.; format: functional, cell-based; settings: Homo sapiens
[10] = system: DU-145; assay: The concentration levels of putrescine (PU) evaluated for the polyamine and analogue levels in DU145 cells treated with the compound concentration of 5 uM on fifth day of treatment.; format: functional, cell-based; settings: Homo sapiens
[11] = system: DU-145; assay: The concentration levels of putrescine (PU) evaluated for the polyamine and analogue levels in DU145 cells treated with the compound concentration of 5 uM on third day of treatment.; format: functional, cell-based; settings: Homo sapiens
[12] = system: DU-145; assay: The concentration levels of analogue evaluated for the polyamine and analogue levels in DU145 cells treated with the compound concentration of 0 uM on fifth day of treatment.; format: functional, cell-based; settings: Homo sapiens
[13] = system: DU-145; assay: The concentration levels of analogue evaluated for the polyamine and analogue levels in DU145 cells treated with the compound concentration of 0 uM on third day of treatment.; format: functional, cell-based; settings: Homo sapiens
[14] = system: DU-145; assay: The concentration levels of analogue evaluated for the polyamine and analogue levels in DU145 cells treated with the compound concentration of 5 uM on fifth day of treatment.; format: functional, cell-based; settings: Homo sapiens
[15] = system: DU-145; assay: The concentration levels of spermidine (SD) evaluated for the polyamine and analogue levels in DU145 cells treated with the compound concentration of 0 uM on fifth day of treatment.; format: functional, cell-based; settings: Homo sapiens
[16] = system: DU-145; assay: The concentration levels of spermidine (SD) evaluated for the polyamine and analogue levels in DU145 cells treated with the compound concentration of 5 uM on fifth day of treatment.; format: functional, cell-based; settings: Homo sapiens
[17] = system: HT-29; assay: Growth inhibitory activity was measured for human HT-29 tumor cell line.; format: functional; settings: Homo sapiens, HT-29; read-out: ID50 (the source's name)
[18] = system: MCF7; assay: Growth inhibitory activity was measured for human MCF-7 tumor cell line.; format: functional; settings: read-out: ID50 (the source's name)
[19] = system: PC-3; assay: Growth inhibitory activity was measured for human PC-3 tumor cell line.; format: functional; settings: Homo sapiens, PC-3; read-out: ID50 (the source's name)
[20] = system: U-251; assay: Growth inhibitory activity was measured for human U251MG NCI tumor cell line.; format: functional; settings: read-out: ID50 (the source's name)
[21] = system: DU-145; assay: The concentration levels of spermine (SP), evaluated for the polyamine and analogue levels in DU145 cells treated with the compound concentration of 0 uM on third day of treatment.; format: functional, cell-based; settings: Homo sapiens
[22] = system: DU-145; assay: The concentration levels of putrescine (PU) evaluated in DU145 cells treated with the compound concentration of 2 uM on third day of treatment; Not quantifiable; format: functional, cell-based; settings: Homo sapiens
[23] = system: DU-145; assay: The concentration levels of spermidine (SD) evaluated in DU145 cells treated with the compound concentration of 0.02 uM on third day of treatment.; format: functional, cell-based; settings: Homo sapiens
[24] = system: DU-145; assay: The concentration levels of spermidine (SD) evaluated in DU145 cells treated with the compound concentration of 2 uM on third day of treatment; Not quantifiable; format: functional, cell-based; settings: Homo sapiens
[25] = system: DU-145; assay: The concentration levels of spermidine (SD), evaluated in DU145 cells treated with the compound concentration of 0.02 uM on first day of treatment.; format: functional, cell-based; settings: Homo sapiens
[26] = system: DU-145; assay: The concentration levels of spermidine (SD), evaluated in DU145 cells treated with the compound concentration of 2 uM on first day of treatment.; format: functional, cell-based; settings: Homo sapiens
[27] = system: DU-145; assay: The concentration levels of analogue evaluated in DU145 cells treated with the compound concentration of 0.02 uM on first day of treatment.; format: functional, cell-based; settings: Homo sapiens
[28] = system: DU-145; assay: The concentration levels of analogue evaluated in DU145 cells treated with the compound concentration of 0.02 uM on third day of treatment.; format: functional, cell-based; settings: Homo sapiens
[29] = system: DU-145; assay: The concentration levels of putrescine (PU) evaluated in DU145 cells treated with the compound concentration of 2 uM on first day of treatment; Not quanitfiable; format: functional, cell-based; settings: Homo sapiens
[30] = system: DU-145; assay: The concentration levels of analogue evaluated in DU145 cells treated with the compound concentration of 2 uM on first day of treatment.; format: functional, cell-based; settings: Homo sapiens
[31] = system: DU-145; assay: The concentration levels of analogue evaluated in DU145 cells treated with the compound concentration of 2 uM on third day of treatment.; format: functional, cell-based; settings: Homo sapiens
[32] = system: DU-145; assay: The concentration levels of spermine (SP) evaluated in DU145 cells treated with the compound concentration of 0.02 uM on third day of treatment.; format: functional, cell-based; settings: Homo sapiens
[33] = system: DU-145; assay: The concentration levels of spermine (SP) evaluated in DU145 cells treated with the compound concentration of 2 uM on third day of treatment.; format: functional, cell-based; settings: Homo sapiens
[34] = system: DU-145; assay: The concentration levels of spermine (SP), evaluated in DU145 cells treated with the compound concentration of 0.02 uM on first day of treatment.; format: functional, cell-based; settings: Homo sapiens
[35] = system: DU-145; assay: The concentration levels of spermine (SP), evaluated in DU145 cells treated with the compound concentration of 2 uM on first day of treatment.; format: functional, cell-based; settings: Homo sapiens
[36] = system: DU-145; assay: The concentration levels of putrescine (PU) evaluated in DU145 cells treated with the compound concentration of 0.02 uM on first day of treatment.; format: functional, cell-based; settings: Homo sapiens
[37] = system: DU-145; assay: The concentration levels of putrescine (PU) evaluated in DU145 cells treated with the compound concentration of 0.02 uM on third day of treatment.; format: functional, cell-based; settings: Homo sapiens
[38] = system: DU-145; assay: Growth inhibitory activity was measured for human DU145 tumor cell line.; format: functional; settings: read-out: ID50 (the source's name)

With `CCNCCCNCC#CCNCCCNCC` the IC50 [1] was greater than 31.2 µM, the Concentration (nM (10e6*cells)-1) [2] was 1.73 and the Concentration (nM (10e6*cells)-1) [3] was 2.56. The Concentration (nM (10e6*cells)-1) [4] was 0.9, the Concentration (nM (10e6*cells)-1) [5] was 1.55 and the Concentration (nM (10e6*cells)-1) [6] was 1.33. For the same compound, the Concentration (nM (10e6*cells)-1) [7] was 2.16, the Concentration (nM (10e6*cells)-1) [8] was 0.03 and the Concentration (nM (10e6*cells)-1) [9] was 0.11. It also gave a Concentration (nM (10e6*cells)-1) [10] of 0.06, a Concentration (nM (10e6*cells)-1) [11] of 0.04 and a Concentration (nM (10e6*cells)-1) [12] of 0.03. For the same compound, the Concentration (nM (10e6*cells)-1) [13] was 0.06, the Concentration (nM (10e6*cells)-1) [14] was 1.71 and the Concentration (nM (10e6*cells)-1) [15] was 1.55. For the same compound, the Concentration (nM (10e6*cells)-1) [16] was 0.59, the IC50 [17] was greater than 31.2 µM and the IC50 [18] was greater than 31.2 µM. It also gave an IC50 [19] greater than 31.2 µM, an IC50 [20] greater than 31.2 µM and a Concentration (nM (10e6*cells)-1) [21] of 3.13.

For `CCNCCCNCC1CC1CNCCCNCC` (stereo in doubt; 9), the Concentration [22] was “Not quantifiable”, the Concentration (nM (10e6*cells)-1) [23] was 1.01 and the Concentration [24] was “Not quantifiable”. The Concentration (nM (10e6*cells)-1) [25] was 1.64, the Concentration (nM (10e6*cells)-1) [26] was 0.1 and the Concentration (nM (10e6*cells)-1) [27] was 0.9. The Concentration (nM (10e6*cells)-1) [28] was 0.15, the Concentration [29] was “Not quantifiable” and the Concentration (nM (10e6*cells)-1) [30] was 4.08. For the same compound, the Concentration (nM (10e6*cells)-1) [31] was 3.97, the Concentration (nM (10e6*cells)-1) [32] was 1.97 and the Concentration (nM (10e6*cells)-1) [33] was 0.06. The Concentration (nM (10e6*cells)-1) [34] was 2.16, the Concentration (nM (10e6*cells)-1) [35] was 0.4 and the Concentration (nM (10e6*cells)-1) [36] was 0.18. For the same compound, the Concentration (nM (10e6*cells)-1) [37] was 0.05.

`CCNCCCNCC1CCC1CNCCCNCC` (stereo in doubt; 15) showed an IC50 [38] of 0.01 µM, an IC50 [17] of 1.6 µM and an IC50 [18] greater than 31.2 µM. The IC50 [20] was 0.12 µM.
